In patent publication US20090208517A1, “Preparation Of Antigen-Presenting Human Gamma-Delta T Cells And Use In Immunotherapy” (priority 2004, published 2009):

System: naïve CD4^+ αβ T cells
Type: cell-based, human

## phytohemagglutinin [PHA]
  Vβ2^+ (%) responder cells: 9%
  selective expansion of Vβ2^+ T cells (in words): does not result in selective expansion of Vβ2^+ T cells
